Assay results taken from patent US12077503B2, “Substituted cyclic amides and their use as herbicides” (FMC CORPORATION, priority 2015, dated 2024).

Legend:
Assay type in all cases: in vivo
Kochia (Kochia scoparia) [1] = test: Test A preemergence; settings: Bassia scoparia, pre-emergence, 240 h, preemergence, read-out: Plant response rating, Kochia
How it was run: (§1)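 Greenhouse, ~10 d after spray; visual injury vs untreated controls, 0 = no effect, 100 = complete control. Preemergence: directed soil spray over planted seeds. Postemergence: plants 2–10 cm, 1–2 leaf stage. Loam/sand blend. Compound in non-phytotoxic solvent with surfactant.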

[2] = tested on: barnyardgrass (Echinochloa crus-galli); test: Test A preemergence; settings: Echinochloa crus-galli, pre-emergence, 240 h, preemergence, read-out: Plant response rating, Barnyardgrass
How it was run: as §1

[3] = tested on: giant foxtail (Setaria faberii); test: Test A preemergence; settings: Setaria faberi, pre-emergence, 240 h, preemergence, read-out: Plant response rating, Foxtail, Giant
How it was run: as §1

[4] = tested on: pigweed (Amaranthus retroflexus); test: Test A preemergence; settings: Amaranthus retroflexus, pre-emergence, 240 h, preemergence, read-out: Plant response rating, Pigweed
[5] = tested on: ragweed (common ragweed, Ambrosia elatior); test: Test A preemergence; settings: Ambrosia artemisiifolia, pre-emergence, 240 h, preemergence, read-out: Plant response rating, Ragweed
How it was run: as §1

[6] = tested on: ryegrass, Italian (Italian ryegrass, Lolium multiflorum); test: Test A preemergence; settings: Lolium multiflorum, pre-emergence, 240 h, 125 g ai/ha, preemergence; visual rating after approx. 10 d; 0 to 100 scale where 0 is no effect and 100 is complete control; read-out: Plant response rating, Ryegrass, Italian
How it was run: as §1

[7] = tested on: Galium (catchweed bedstraw, Galium aparine); test: Test A postemergence; settings: Galium, post-emergence, 240 h, 125 g ai/ha, postemergence; visual injury after approximately 10 d; 0 to 100 scale (0 no effect, 100 complete control); read-out: Plant response rating, Galium
How it was run: as §1

Kochia (Kochia scoparia) [8] = test: Test A postemergence; settings: Bassia scoparia, post-emergence, 240 h, 125 g ai/ha, postemergence; visual injury after approximately 10 d; 0 to 100 scale (0 no effect, 100 complete control); read-out: Plant response rating, Kochia
How it was run: as §1

[9] = tested on: barnyardgrass (Echinochloa crus-galli); test: Test A postemergence; settings: Echinochloa crus-galli, post-emergence, 240 h, 125 g ai/ha, postemergence; visual injury after approximately 10 d; 0 to 100 scale (0 no effect, 100 complete control); read-out: Plant response rating, Barnyardgrass
How it was run: as §1

[10] = tested on: blackgrass (Alopecurus myosuroides); test: Test A postemergence; settings: Alopecurus myosuroides, post-emergence, 240 h, 125 g ai/ha, postemergence; visual injury after approximately 10 d; 0 to 100 scale (0 no effect, 100 complete control); read-out: Plant response rating, Blackgrass
How it was run: as §1

corn (Zea mays) = test: Test A postemergence; settings: Zea mays, post-emergence, 240 h, 125 g ai/ha, postemergence; visual injury after approximately 10 d; 0 to 100 scale (0 no effect, 100 complete control)
How it was run: as §1

[11] = tested on: giant foxtail (Setaria faberii); test: Test A postemergence; settings: Setaria faberi, post-emergence, 240 h, 125 g ai/ha, postemergence; visual injury after approximately 10 d; 0 to 100 scale (0 no effect, 100 complete control); read-out: Plant response rating, Foxtail, Giant
How it was run: as §1

[12] = tested on: pigweed (Amaranthus retroflexus); test: Test A postemergence; settings: Amaranthus retroflexus, post-emergence, 240 h, 125 g ai/ha, postemergence; visual injury after approximately 10 d; 0 to 100 scale (0 no effect, 100 complete control); read-out: Plant response rating, Pigweed
How it was run: as §1

[13] = tested on: ragweed (common ragweed, Ambrosia elatior); test: Test A postemergence; settings: Ambrosia artemisiifolia, post-emergence, 240 h, 125 g ai/ha, postemergence; visual injury after approximately 10 d; 0 to 100 scale (0 no effect, 100 complete control); read-out: Plant response rating, Ragweed
How it was run: as §1

[14] = tested on: wheat (Triticum aestivum); test: Test A postemergence; settings: Triticum aestivum, post-emergence, 240 h, 125 g ai/ha, postemergence; visual injury after approximately 10 d; 0 to 100 scale (0 no effect, 100 complete control); read-out: Plant response rating, Wheat
How it was run: as §1

[15] = 125 g ai/ha, visual rating after approx. 10 d, 0 to 100 scale where 0 is no effect and 100 is complete control
[16] = 500 g ai/ha, 0 to 100 scale, 0 = no effect, 100 = complete control

Q: How did the pest or weed control at 125 g/ha (Kochia (Kochia scoparia) [1]; [15]) turn out when `COc1cc([C@H]2CN(C)C(=O)[C@@H]2C(=O)Nc2ccccc2SC)ccc1C(F)(F)F` [Compound 769] was run?
A: 30%

Q: What about the pest or weed control at 500 g/ha (Kochia (Kochia scoparia) [1]; [16]) of the same compound?
A: 70%

Q: And the pest or weed control at 125 g/ha [2, 15]?
A: 70%

Q: And the pest or weed control at 500 g/ha [2, 16]?
A: 100%

Q: What about the pest or weed control at 125 g/ha [3, 15] of the same compound?
A: 90%

Q: And the pest or weed control at 500 g/ha [3, 16]?
A: 100%

Q: And the pest or weed control at 125 g/ha [4, 15]?
A: 30%

Q: What about the pest or weed control at 500 g/ha [4, 16] of the same compound?
A: 80%

Q: And the pest or weed control at 125 g/ha [5, 15]?
A: 30%

Q: And the pest or weed control at 500 g/ha [5, 16]?
A: 70%

Q: What about the pest or weed control at 125 g/ha [6] of the same compound?
A: 0%

Q: What about the pest or weed control at 125 g/ha [7] of the same compound?
A: 50%

Q: And the pest or weed control at 125 g/ha (Kochia (Kochia scoparia) [8])?
A: 0%

Q: And the pest or weed control at 125 g/ha [9]?
A: 50%

Q: What about the pest or weed control at 125 g/ha [10] of the same compound?
A: 0%

Q: And the Corn plant response rating (crop injury, 0 = no effect, 100 = complete kill) at 125 g/ha (corn (Zea mays))?
A: 0%

Q: What about the pest or weed control at 125 g/ha [11] of the same compound?
A: 70%

Q: And the pest or weed control at 125 g/ha [12]?
A: 0%

Q: And the pest or weed control at 125 g/ha [13]?
A: 0%

Q: What about the plant injury at 125 g/ha [14] of the same compound?
A: 0%
